# In ChEMBL document CHEMBL5728939, “Myocyte enhancer factor 2 (MEF2) modulators” (2022):
# pIC50: −log10 of the molar value.
# How the values were obtained:
# [1] = molecular target: Histone deacetylase 4/Myocyte-specific enhancer factor 2D (Homo sapiens, UniProt P56524+Q14814); assay: Inhibitory Effects of the Compounds on MEF2D and HDAC4 Protein Interactions: Detection of MEF2D and HDAC4 interactions. In this mammalian two-hybrid assay, HDAC4 and MEF2D proteins were used. […] Human epithelial carcinoma cells (HeLa) were co-transfected with the two DNA constructs (GAL4-MEF2D and HDAC4-VP16) and a reporter plasmid (Gal4Luc). […] MEF2D and HDAC4 protein interactions were detected as a result of the GAL4-MEF2D and HDAC4-VP16 protein complex binding a DNA promoter on the reporter plasmid (Gal4Luc) and driving cellular expression of a luciferase gene. The measured luciferase protein signal was proportional to the amount of MEF2D and HDAC4 protein interactions occurring with the cell.
# [2] = molecular target: Histone acetyltransferase p300/Myocyte-specific enhancer factor 2D (Homo sapiens, UniProt Q09472+Q14814); assay: Inhibitory Effects of the Compounds on MEF2D and P300 Protein Interactions: Detection of MEF2D and P300 interactions. The same system that was used in Example 19 is used in here to detect MEF2D and P300 interactions. In this assay, two separate DNA constructs were made with MEF2D fused with the GAL4 DNA binding domain (GAL4-MEF2D) and P300 fused with the viral transactivator VP-16 […] epithelial carcinoma cells (HeLa) were co-transfected with the two DNA constructs (GAL4-MEF2D and P300-VP16) and a reporter plasmid (Gal4Luc). […] MEF2D and P300 protein interactions were detected as a result of the GAL4-MEF2D and P300-VP16 protein complex binding a DNA promoter on the reporter plasmid (Gal4Luc) and driving cellular expression of a luciferase gene. The measured luciferase protein signal was proportional to the amount of MEF2D and P300 protein interactions occurring with the cell.
# Chain of Histone acetyltransferase p300/Myocyte-specific enhancer factor 2D (Q09472 whole entry, the tested form may be a part): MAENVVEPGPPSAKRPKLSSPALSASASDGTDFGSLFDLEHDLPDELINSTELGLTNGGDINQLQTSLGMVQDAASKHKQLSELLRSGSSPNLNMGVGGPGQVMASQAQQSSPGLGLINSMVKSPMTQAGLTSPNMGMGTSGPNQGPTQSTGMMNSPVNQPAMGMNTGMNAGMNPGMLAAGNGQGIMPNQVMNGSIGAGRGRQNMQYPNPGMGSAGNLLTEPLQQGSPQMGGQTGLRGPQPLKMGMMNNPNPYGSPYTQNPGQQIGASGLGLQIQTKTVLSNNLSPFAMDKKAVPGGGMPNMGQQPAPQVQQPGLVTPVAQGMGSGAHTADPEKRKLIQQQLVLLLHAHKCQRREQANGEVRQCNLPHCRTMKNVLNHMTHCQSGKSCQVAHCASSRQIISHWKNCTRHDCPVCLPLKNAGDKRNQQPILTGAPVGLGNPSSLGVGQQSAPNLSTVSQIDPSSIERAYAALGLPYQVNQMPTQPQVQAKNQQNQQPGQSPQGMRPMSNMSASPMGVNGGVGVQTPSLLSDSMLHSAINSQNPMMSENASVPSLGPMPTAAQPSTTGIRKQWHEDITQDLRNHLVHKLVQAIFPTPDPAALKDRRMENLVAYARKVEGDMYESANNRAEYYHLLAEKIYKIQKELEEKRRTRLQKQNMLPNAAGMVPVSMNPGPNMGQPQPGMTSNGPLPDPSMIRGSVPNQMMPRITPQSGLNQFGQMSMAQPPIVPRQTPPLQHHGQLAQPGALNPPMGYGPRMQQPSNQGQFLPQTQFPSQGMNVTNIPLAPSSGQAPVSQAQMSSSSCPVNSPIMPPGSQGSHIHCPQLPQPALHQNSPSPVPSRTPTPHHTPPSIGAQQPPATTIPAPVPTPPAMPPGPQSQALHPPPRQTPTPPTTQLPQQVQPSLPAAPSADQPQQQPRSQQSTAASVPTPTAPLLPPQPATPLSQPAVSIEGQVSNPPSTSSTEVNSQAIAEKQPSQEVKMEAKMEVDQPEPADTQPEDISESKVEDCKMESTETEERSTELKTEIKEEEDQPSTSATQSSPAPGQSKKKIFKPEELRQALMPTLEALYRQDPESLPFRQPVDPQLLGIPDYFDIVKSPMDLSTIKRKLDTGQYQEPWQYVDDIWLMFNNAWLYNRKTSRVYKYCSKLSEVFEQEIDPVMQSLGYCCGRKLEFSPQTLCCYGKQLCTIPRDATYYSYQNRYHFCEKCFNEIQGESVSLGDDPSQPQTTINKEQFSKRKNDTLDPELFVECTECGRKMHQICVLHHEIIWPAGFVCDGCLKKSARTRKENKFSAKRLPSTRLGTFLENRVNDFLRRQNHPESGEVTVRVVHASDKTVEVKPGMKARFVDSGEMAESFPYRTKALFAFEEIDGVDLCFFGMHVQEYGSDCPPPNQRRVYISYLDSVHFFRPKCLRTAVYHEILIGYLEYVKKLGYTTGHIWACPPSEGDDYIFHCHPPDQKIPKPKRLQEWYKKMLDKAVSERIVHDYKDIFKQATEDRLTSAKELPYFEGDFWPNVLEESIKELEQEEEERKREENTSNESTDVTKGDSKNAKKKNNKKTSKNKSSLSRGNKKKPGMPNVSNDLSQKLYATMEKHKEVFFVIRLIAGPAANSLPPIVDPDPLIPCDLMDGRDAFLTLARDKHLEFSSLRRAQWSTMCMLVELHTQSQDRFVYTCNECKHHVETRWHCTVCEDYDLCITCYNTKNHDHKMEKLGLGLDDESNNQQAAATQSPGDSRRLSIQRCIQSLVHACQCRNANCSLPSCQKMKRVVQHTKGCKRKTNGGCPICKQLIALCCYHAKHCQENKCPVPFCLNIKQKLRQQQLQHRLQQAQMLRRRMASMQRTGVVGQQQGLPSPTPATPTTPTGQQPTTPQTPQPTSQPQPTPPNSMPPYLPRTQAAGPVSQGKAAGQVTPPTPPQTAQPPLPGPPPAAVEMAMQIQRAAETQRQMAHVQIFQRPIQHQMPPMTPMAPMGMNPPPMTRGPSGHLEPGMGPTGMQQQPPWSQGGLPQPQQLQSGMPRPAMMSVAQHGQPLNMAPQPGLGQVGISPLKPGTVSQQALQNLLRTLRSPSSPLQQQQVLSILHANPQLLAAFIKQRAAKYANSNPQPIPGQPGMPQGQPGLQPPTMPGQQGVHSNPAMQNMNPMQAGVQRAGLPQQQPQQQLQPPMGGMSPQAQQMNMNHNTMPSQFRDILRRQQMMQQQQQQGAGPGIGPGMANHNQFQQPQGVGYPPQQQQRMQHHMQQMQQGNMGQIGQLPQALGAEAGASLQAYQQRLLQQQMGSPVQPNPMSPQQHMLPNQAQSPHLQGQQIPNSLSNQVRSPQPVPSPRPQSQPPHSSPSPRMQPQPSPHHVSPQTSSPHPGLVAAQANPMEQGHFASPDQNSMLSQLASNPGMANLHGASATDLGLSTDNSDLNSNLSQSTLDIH
# Chain of Histone acetyltransferase p300/Myocyte-specific enhancer factor 2D (Q14814 whole entry, the tested form may be a part): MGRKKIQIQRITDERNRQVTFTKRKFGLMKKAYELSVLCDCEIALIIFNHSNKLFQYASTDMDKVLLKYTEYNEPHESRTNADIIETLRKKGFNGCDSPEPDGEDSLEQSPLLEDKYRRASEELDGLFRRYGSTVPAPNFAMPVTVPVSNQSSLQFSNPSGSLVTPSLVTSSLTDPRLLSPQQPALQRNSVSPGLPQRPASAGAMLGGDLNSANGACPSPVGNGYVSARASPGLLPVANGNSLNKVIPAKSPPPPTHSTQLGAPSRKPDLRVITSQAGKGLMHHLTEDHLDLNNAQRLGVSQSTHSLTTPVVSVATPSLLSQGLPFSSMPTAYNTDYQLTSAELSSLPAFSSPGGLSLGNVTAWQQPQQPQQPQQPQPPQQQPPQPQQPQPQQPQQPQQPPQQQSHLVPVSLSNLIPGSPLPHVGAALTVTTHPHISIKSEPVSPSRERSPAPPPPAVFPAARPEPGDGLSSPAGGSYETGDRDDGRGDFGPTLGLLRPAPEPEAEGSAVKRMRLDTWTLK
# Chain of Histone deacetylase 4/Myocyte-specific enhancer factor 2D (P56524 whole entry, the tested form may be a part): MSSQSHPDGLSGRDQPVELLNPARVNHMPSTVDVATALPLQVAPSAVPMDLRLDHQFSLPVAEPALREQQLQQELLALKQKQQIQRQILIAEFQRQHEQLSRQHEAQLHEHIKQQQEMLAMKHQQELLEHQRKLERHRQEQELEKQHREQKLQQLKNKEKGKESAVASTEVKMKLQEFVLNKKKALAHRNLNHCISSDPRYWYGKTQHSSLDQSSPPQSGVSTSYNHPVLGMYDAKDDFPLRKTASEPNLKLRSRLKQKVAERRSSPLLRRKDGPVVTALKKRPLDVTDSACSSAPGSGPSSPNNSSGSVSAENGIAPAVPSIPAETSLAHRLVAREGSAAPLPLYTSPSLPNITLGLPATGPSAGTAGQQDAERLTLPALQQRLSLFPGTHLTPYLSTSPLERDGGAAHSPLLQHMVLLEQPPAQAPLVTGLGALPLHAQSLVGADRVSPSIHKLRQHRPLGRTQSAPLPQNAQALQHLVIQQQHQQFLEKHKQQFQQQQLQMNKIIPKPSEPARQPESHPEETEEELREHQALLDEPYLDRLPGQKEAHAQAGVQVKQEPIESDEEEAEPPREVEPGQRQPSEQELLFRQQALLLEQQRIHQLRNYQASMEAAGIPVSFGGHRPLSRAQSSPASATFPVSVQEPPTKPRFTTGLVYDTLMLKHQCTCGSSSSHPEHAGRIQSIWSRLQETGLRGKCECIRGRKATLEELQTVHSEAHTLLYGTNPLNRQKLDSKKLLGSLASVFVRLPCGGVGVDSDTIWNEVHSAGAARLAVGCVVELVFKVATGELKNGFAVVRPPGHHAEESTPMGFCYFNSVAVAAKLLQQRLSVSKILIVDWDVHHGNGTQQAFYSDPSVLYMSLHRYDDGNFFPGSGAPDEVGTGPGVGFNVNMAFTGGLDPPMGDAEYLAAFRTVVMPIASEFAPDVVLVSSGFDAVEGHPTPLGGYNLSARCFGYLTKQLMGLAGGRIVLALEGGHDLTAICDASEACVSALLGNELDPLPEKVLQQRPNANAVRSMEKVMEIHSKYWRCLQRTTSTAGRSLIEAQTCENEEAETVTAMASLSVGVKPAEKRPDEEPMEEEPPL
# Chain of Histone deacetylase 4/Myocyte-specific enhancer factor 2D (Q14814 whole entry, the tested form may be a part): as the sequence (Q14814 whole entry, the tested form may be a part) above
pIC50 [1],pIC50 [2],Compound
6.10,6.15,Nc1ccccc1NC(=O)CCCCC(NC(=O)c1ccccc1)C(=O)Nc1ccccc1 (stereo unspecified)
6.29,6.57,Cc1[nH]c2ccccc2c1CCNCc1cccc(/C=C/C(=O)Nc2ccccc2N)c1
5.14,6.14,Nc1ccccc1NC(=O)/C=C/c1cccc(CNc2ccc3ccccc3c2)c1
